Reference: patent US20220380314A1, “SUBSTITUTED, SATURATED AND UNSATURATED N-HETEROCYCLIC CARBOXAMIDES AND RELATED COMPOUNDS FOR THEIR USE IN THE TREATMENT OF MEDICAL DISORDERS” (Bial - R&D Investments, S.A., priority 2019, published 2022)
Values after ≈ are worked out from the molar mass of the structure shown.

Legend:
[1] = Compound solubility in water; format: physicochemical
acid ceramidase (hACR) = molecular target: T1, acid ceramidase (hACR) (Homo sapiens, UniProt Q13510); test: Acid ceramidase inhibition, biochemical fluorescent assay with cell lysates overexpressing acid ceramidase, substrate Rbm14-12; conditions: cell lysates overexpressing acid ceramidase; 1 hr preincubation at RT; pH 4.5; substrate Rbm14-12 6.3 μM; read-out: hACR IC50
T1 construct: expressed in transfected cells; cell lysate used
T1 sequence (Q13510 143-395 limits assumed): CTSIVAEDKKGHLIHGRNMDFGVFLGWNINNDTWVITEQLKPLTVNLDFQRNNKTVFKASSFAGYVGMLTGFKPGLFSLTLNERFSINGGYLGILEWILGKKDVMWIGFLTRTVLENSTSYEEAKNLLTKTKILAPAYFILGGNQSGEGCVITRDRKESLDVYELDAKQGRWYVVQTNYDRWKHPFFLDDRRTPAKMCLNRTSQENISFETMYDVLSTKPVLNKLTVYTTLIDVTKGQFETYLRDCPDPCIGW
T1 sequence (Q13510 22-142 limits assumed): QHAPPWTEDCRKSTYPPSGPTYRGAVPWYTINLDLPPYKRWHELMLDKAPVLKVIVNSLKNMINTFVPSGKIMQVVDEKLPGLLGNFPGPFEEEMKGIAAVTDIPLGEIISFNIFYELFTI
Procedure: The ability of exemplary compounds to inhibit acid ceramidase was measured.
Cell lysates overexpressing acid ceramidase were used as the enzyme source for compound potency determination in a biochemical fluorescent assay. Briefly, compounds were preincubated with 10 µg protein of cell lysates in a dose-response manner for 1 hr at RT in the assay buffer containing 25 mM NaAC and 100 mM NaCl, pH 4.5. The reaction was initiated by the addition of substrate Rbm14-12 at a final concentration of 6.3 μM. The reaction was run at RT for 1 hr before it was stopped by the addition of the stopping buffer containing 20% methanol (v/v), 1 mg/ml NaIO4, 0.1 M glycine, pH 10.6. The samples were incubated with the stopping buffer at RT for 1 hr to allow the fluorescent product to be formed. Finally the plate was read with SpectraMax i3 plate reader (Molecular Devices) at ex360 nm and em446 nm. Data were collected and used to determine the IC50 values of compounds by curve fitting to the four-parameter inhibition equation.
The symbol “A” indicates inhibition of less than 0.2 μM; the symbol “B” indicates inhibition in the range of 0.2 μM up to 1 μM; and the symbol “C” indicates inhibition of greater than 1 μM.

| SMILES | solubility [1] [µM] | IC50 (acid ceramidase (hACR)) [µM] |
| --- | --- | --- |
| CN1CC(C)(C)N(C(=O)NCCc2ccccc2)c2ccccc21 [Example 7, 2,2,4-Trimethyl-N-phenethyl-3,4-dihydroquinoxaline-1(2H)-carboxamide] | 6.7 (≈ 2.17 µg/mL) | 0.2 to 1 |
| CN1CCN(c2ccc3c(c2)CCC(C)(C)N3C(=O)NCCc2ccccc2)CC1 [Example 30, 2,2-Dimethyl-6-(4-methylpiperazin-1-yl)-N-phenethyl-3,4-dihydroquinoline-1(2H)-carboxamide] | 36.4 (≈ 14.8 µg/mL) | 0.2 to 1 |
| CC1(C)CCc2ncccc2N1C(=O)NCCc1ccccc1 [Example 9, 2,2-Dimethyl-N-phenethyl-3,4-dihydro-1,5-naphthyridine-1(2H)-carboxamide] | 25.2 (≈ 7.8 µg/mL) | > 1 |
| CC1(C)CCc2ccccc2N1C(=O)NCCOc1ccccc1 [Example 18, 2,2-Dimethyl-N-(2-phenoxyethyl)-3,4-dihydroquinoline-1(2)-carboxamide] | 1.5 (≈ 0.487 µg/mL) | 0.2 to 1 |
| Cn1ccnc1-c1cccc2c1CCC(C)(C)N2C(=O)NCCc1ccccc1 [Example 13, 2,2-Dimethyl-5-(1-methyl-1H-imidazol-2-yl)-N-phenethyl-3,4-dihydroquinoline-1(2H)-carboxamide] | 33.6 (≈ 13.1 µg/mL) | > 1 |
| CCCCNC(=O)N1c2cccc(C3CCN(C)CC3)c2CCC1(C)C [Example 24, N-Butyl-2,2-dimethyl-5-(1-methylpiperidin-4-yl)-3,4-dihydroquinoline-1(2H)-carboxamide] | 40.6 (≈ 14.5 µg/mL) | 0.2 to 1 |
| CC1(C)CC(c2ccccc2)CCN1C(=O)NCCOCc1ccccc1 (centres unmarked) [Example 75, N-(2-Benzyloxyethyl)-2,2-dimethyl-4-phenylpiperidine-1-carboxamide] | 7.1 (≈ 2.6 µg/mL) | > 1 |
| O=C(NCCCc1ccccc1)N1CCOCC12CCCC2 [Example 60, N-(3-Phenylpropyl)-9-oxa-6-azaspiro[4.5]decane-6-carboxamide] | 25.2 (≈ 7.62 µg/mL) | > 1 |
| CC(=O)N1CC(c2ccc3c(c2)N(C(=O)NCCc2ccccc2)C(C)(C)CC3)C1 [Example 70, 7-(1-Acetylazetidin-3-yl)-2,2-dimethyl-N-phenethyl-3,4-dihydroquinoline-1(2H)-carboxamide] | 15.6 (≈ 6.33 µg/mL) | 0.2 to 1 |
| CC1(C)CC(c2ccccc2)CCN1C(=O)NCCc1ccccc1 (centres unmarked) [Example 55, 2,2-Dimethyl-N-phenethyl-4-phenylpipridine-1-carboxamide] | 0.4 (≈ 0.135 µg/mL) | < 0.2 |
| CN1CCN(c2cccc3c2CCC(C)(C)N3C(=O)NCCc2ccccc2)CC1 [Example 29, 2,2-Dimethyl-5-(4-methylpiperazin-1-yl)-N-phenethyl-3,4-dihydroquinoline-1(2H)-carboxamide] | 31.7 (≈ 12.9 µg/mL) | > 1 |
| CC1(C)c2ccccc2CCN1C(=O)NCCc1ccccc1 [Example 15, 1,1-Dimethyl-N-phenethyl-3,4-dihydroisoquinoline-2(1H)-carboxamide] | 0.9 (≈ 0.278 µg/mL) | > 1 |
| CCCCNC(=O)N1c2cccc(N3CCN(C)CC3)c2CCC1(C)C [Example 33, N-Butyl-2,2-dimethyl-5-(4-methylpiperazin-1-yl)-3,4-dihydroquinoline-1(2H)-carboxamide] | 22.7 (≈ 8.14 µg/mL) | 0.2 to 1 |
| CN1CCC(c2ccc3c(c2)N(C(=O)NCCc2ccccc2)CCC3)CC1 [Example 3, 7-(1-Methylpiperidin-4-yl)-N-phenethyl-3,4-dihydroquinoline-1(2H)-carboxamide] | 38.7 (≈ 14.6 µg/mL) | > 1 |
| CC1(C)CCCCN1C(=O)NCCCc1ccccc1 [Example 40, 2,2-Dimethyl-N-(3-phenylpropyl)piperidine-1-carboxamide] | 23.4 (≈ 6.42 µg/mL) | < 0.2 |
| CN(C(=O)NCCCc1ccccc1)C1CN2CCC1CC2 (centres unmarked) [Example 64, 1-Methyl-3-(3-phenylpropyl)-1-(quinuclidin-3-yl)urea] | 35.4 (≈ 10.7 µg/mL) | > 1 |
| CCCCNC(=O)N1c2ccccc2CCC1(C)C [Example 27, N-Butyl-2,2-dimethyl-3,4-dihydroquinoline-1(2H)-carboxamide] | 16.8 (≈ 4.37 µg/mL) | 0.2 to 1 |
| CCCCNC(=O)N1CCC2(CCCCO2)CC1(C)C (centres unmarked) [Example 31, N-Butyl-8,8-dimethyl-1-oxa-9-azaspiro[5.5]undecane-9-carboxamide] | 32 (≈ 9.04 µg/mL) | > 1 |
| CC1(C)c2ncccc2CCN1C(=O)NCCc1ccccc1 [Example 14, 8,8-Dimethyl-N-phenethyl-5,6-dihydro-1,7-naphthyridine-7(8H)-carboxamide] | 24 (≈ 7.43 µg/mL) | > 1 |

| SMILES | solubility [1] [µM] | IC50 (acid ceramidase (hACR)) [µM] |
| --- | --- | --- |
| CN(C(=O)NCCCC1(C(F)(F)F)CC1)C12CCC(CC1)CC2 [Example 71, 1-(Bicyclo[2.2.2]octan-1-yl)-1-methyl-3-(3-(1-(trifluoromethyl)cyclopropyl)propyl)urea] | 5.9 (≈ 1.96 µg/mL) | 0.2 to 1 |
| CC1(C)CC2(CCCCO2)CCN1C(=O)NCCCCC1CC1 (centres unmarked) [Example 43, N-(4-Cyclopropylbutyl)-8,8-dimethyl-1-oxa-9-azaspiro[5.5]undecane-9-carboxamide] | 16.5 (≈ 5.32 µg/mL) | 0.2 to 1 |
| CC1(C)CC(c2ccccc2)CCN1C(=O)NCCCCc1ccccc1 (centres unmarked) [Example 74, 2,2-Dimethyl-4-phenyl-N-(4-phenylbutyl)piperidine-1-carboxamide] | 0.2 (≈ 0.0729 µg/mL) | < 0.2 |
| CN1CCC(c2ccc3c(c2)N(C(=O)NCCc2ccccc2)C(C)(C)CC3)CC1 [Example 1, 2,2-Dimethyl-7-(1-methylpiperidin-4-yl)-N-phenethyl-3,4-dihydroquinoline-1(2H)-carboxamide] | 33.2 (≈ 13.5 µg/mL) | 0.2 to 1 |
| CN(C(=O)NCCCc1ccccc1)C12CCC(CC1)CC2 [Example 63, 1-(Bicyclo[2.2.2]octan-1-yl)-1-methyl-3-(3-phenylpropyl)urea] | 3.1 (≈ 0.931 µg/mL) | < 0.2 |
| CC1(C)CC(c2ccccn2)CCN1C(=O)NCCCCc1ccccc1 (centres unmarked) [Example 79, 2,2-Dimethyl-N-(4-phenylbutyl)-4-(2-pyridyl)piperidine-1-carboxamide] | 6.4 (≈ 2.34 µg/mL) | > 1 |
| CN1CCN(C(=O)NCCc2ccccc2)C(C)(C)C1 [Example 34, 2,2,4-Trimethyl-N-phenethylpiperazine-1-carboxamide] | 23.6 (≈ 6.5 µg/mL) | > 1 |
| CN1CC(c2cccc3c2CCC(C)(C)N3C(=O)NCc2ccccc2)C1 [Example 66, N-Benzyl-2,2-dimethyl-5-(1-methylazetidin-3-yl)-3,4-dihydroquinoline-1(2H)-carboxamide] | 38.5 (≈ 14 µg/mL) | 0.2 to 1 |
| CC1(C)CC(F)=CCN1C(=O)NCCCC1(C(F)(F)F)CC1 [Example 73, 4-fluoro-2,2-Dimethyl-N-(3-(1-(trifluoromethyl)cyclopropyl)propyl)-3,6-dihydropyridine-1(2H)-carboxamide] | 4.3 (≈ 1.39 µg/mL) | > 1 |
| COc1ccc(C2COCC(C)(C)N2C(=O)NCCF)cc1 (centres unmarked) [Example 154, N-(2-Fluoroethyl)-5-(4-methoxyphenyl)-3,3-dimethylmorpholine-4-carboxamide] | 92.9 (≈ 28.8 µg/mL) | 0.2 to 1 |
| CN(c1ccccc1)C1CCN(C(=O)NCCCCc2ccccc2)C(C)(C)C1.Cl (centres unmarked) [Example 88, 2,2-Dimethyl-4-(N-methylanilino)-N-(4-phenylbutyl)piperidine-1-carboxamide hydrochloride] | 0.01 | > 1 |
| CCCCNC(=O)N1CCN(C2CCCN(C)C2)CC1(C)C (centres unmarked) [Example 38] | 35.8 (≈ 11.1 µg/mL) | > 1 |
| CCCCCNC(=O)N1C(c2ccc(F)cc2)COCC1(C)C (centres unmarked) [Example 137, 5-(4-Fluorophenyl)-3,3-dimethyl-N-pentylmorpholine-4-carboxamide] | 93 (≈ 30 µg/mL) | < 0.2 |
| CC1(C)CCc2cccnc2N1C(=O)NCCc1ccccc1 [Example 8, 2,2-Dimethyl-N-phenethyl-3,4-dihydro-1,8-naphthyridine-1(2H)-carboxamide] | 27.4 (≈ 8.48 µg/mL) | > 1 |
| CCCCNC(=O)N1CCN(C)CC1(C)C [Example 37, N-Butyl-2,2,4-trimethylpiperazine-1-carboxamide] | 19.1 (≈ 4.34 µg/mL) | > 1 |
| COCCNC(=O)N1c2ccccc2CCC1(C)C [Example 32, N-(2-Methoxyethyl)-2,2-dimethyl-3,4-dihydroquinoline-1(2H)-carboxamide] | 28.7 (≈ 7.53 µg/mL) | – |
| COC1CCN(C(=O)NCCc2ccccc2)C(C)(C)C1 (centres unmarked) [Example 36, 4-Methoxy-2,2-dimethyl-N-phenethylpiperidine-1-carboxamide] | 33.4 (≈ 9.7 µg/mL) | – |
| CC1(C)C(=O)N(c2ccccc2)CCN1C(=O)NCCCCc1ccccc1 [Example 106, 2,2-Dimethyl-3-oxo-4-phenyl-N-(4-phenylbutyl)piperazine-1-carboxamide] | – | < 0.2 |
